{"source": "patent US11999699B2", "about": "“Substituted pyrazole amides” (GRUENENTHAL GMBH, priority 2021, dated 2024)", "note": "pIC50: −log10 of the molar value."}
{"target": "T1, human NaV1.8 (Homo sapiens, UniProt Q9Y5Y9)", "T1 construct": "The following NaV1.8 recombinant cell line was used for recordings: HEK-NaV1.8 (NM 006514.1); expressed in transfected cells; host or cells: HEK (recombinant cell line HEK-NaV1.8)", "T1 sequence (Q9Y5Y9 whole entry)": "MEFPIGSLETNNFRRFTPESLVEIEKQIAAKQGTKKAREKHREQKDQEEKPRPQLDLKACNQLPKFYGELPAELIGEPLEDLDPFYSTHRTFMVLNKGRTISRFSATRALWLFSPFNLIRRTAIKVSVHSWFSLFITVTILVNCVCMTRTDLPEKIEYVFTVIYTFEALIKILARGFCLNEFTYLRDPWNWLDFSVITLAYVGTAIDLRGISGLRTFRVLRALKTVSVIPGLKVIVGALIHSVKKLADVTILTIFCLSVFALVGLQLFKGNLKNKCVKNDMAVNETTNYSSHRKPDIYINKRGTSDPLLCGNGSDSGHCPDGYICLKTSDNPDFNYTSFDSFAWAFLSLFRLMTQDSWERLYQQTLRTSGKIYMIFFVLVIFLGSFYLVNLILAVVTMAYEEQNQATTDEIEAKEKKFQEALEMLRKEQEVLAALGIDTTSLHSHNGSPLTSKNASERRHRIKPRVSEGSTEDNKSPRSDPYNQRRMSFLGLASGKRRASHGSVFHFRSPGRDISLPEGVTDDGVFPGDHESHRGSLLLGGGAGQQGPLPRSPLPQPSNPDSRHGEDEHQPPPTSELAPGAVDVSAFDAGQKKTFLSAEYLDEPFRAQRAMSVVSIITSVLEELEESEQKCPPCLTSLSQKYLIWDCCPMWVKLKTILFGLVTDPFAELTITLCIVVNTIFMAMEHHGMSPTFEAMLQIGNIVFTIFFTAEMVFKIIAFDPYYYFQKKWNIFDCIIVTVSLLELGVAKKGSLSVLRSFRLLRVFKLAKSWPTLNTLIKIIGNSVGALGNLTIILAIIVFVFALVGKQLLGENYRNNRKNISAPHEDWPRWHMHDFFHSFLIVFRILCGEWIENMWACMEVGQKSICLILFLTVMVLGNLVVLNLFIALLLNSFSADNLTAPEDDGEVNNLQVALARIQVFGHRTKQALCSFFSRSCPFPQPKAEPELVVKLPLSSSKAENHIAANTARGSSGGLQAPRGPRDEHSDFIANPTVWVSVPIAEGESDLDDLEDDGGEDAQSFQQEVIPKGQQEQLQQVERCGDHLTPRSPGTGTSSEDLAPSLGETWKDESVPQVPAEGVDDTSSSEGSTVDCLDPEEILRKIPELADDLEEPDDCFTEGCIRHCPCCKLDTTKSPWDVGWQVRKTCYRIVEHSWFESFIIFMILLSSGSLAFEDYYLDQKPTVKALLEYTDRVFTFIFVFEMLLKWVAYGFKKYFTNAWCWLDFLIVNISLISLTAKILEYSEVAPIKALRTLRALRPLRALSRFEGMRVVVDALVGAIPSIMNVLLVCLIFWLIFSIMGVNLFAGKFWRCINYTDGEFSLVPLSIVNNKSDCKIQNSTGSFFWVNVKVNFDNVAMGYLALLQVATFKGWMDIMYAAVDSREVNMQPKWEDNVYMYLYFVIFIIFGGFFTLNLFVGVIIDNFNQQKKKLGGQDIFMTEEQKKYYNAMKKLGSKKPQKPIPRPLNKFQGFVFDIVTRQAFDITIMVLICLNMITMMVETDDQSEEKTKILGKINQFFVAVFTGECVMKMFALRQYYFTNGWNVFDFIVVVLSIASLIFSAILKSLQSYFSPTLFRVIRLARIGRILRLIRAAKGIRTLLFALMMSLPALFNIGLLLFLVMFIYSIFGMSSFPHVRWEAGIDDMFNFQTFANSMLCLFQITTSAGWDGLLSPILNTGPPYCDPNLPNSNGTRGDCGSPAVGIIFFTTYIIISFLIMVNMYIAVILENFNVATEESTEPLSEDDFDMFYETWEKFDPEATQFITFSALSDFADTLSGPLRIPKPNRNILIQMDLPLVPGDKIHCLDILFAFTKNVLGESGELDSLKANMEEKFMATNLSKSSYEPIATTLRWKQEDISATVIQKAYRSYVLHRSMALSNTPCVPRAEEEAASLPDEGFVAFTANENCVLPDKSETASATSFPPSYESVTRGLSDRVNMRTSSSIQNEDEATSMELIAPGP", "T1 sequence (Q9NY72 23-215 partner)": "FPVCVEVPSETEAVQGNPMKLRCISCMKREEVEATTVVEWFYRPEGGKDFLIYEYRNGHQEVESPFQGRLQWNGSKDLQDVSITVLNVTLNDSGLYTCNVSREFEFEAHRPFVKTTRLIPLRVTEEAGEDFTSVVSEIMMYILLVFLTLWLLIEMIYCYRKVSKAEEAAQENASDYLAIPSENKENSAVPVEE", "test": "Electrophysiology: automated whole-cell voltage-clamp (patch clamp, Qube384) recordings of sodium currents in HEK-NaV1.8 cells", "type": "cell-based", "settings": "potency data either taken from inactivated or resting state, read-out: Potency category (human NaV1.8 IC50)", "experimental": "Electrophysiology: Voltage-Clamp Recordings\nThe following NaV1.8 recombinant cell line was used for recordings: HEK-NaV1.8 (NM 006514.1) with in (NM 018400.3).\nSodium currents were measured using the patch clamp technique in the whole-cell configuration using the Qube384 (Sophion A/S, Copenhagen, Denmark) automated voltage clamp platform. “Multi hole” plates were used for the cell line expressing NaV1.8 while “single hole” plates were used for the recombinant cell lines expressing the other subtypes. Appropriate filters (for minimum seal resistance and minimum current size) and series resistance compensation (for high quality sodium channel recordings) were applied. Data was collected at ambient room temperature.\nThe recording extracellular solution contained (in mM): NaCl 145 mM, KCl 4 mM, CaCl2 2 mM, MgCl2 1 mM, HEPES 10 mM, Glucose 10 mM, pH 7.4 (NaOH). The intracellular recording solution contained (in mM): CsF 120 mM, CsCl 20 mM, NaCl 10 mM, EGTA 10 mM, HEPES 10 mM, pH 7.2 (CsOH). Currents were recorded at 25 kHz sampling frequency and filtered at 5 kHz. Series resistance compensation was applied at 65%.\nVehicle (VEH) is the control condition where cells are exposed to 0.3% DMSO without compound. All runs include VEH controls being exposed to the same voltage protocols to assess non-compound related phenomena such as run down and then used to isolate compound dependent effects on currents.\nTo check for state-dependence inhibition, the following voltage-sequence was applied every 20 seconds:\nFrom a resting membrane potential of −120 mV, the first test pulse (P1; 20 ms to −10 mV) was applied to check for channels in the Resting State followed by a brief recovery (20 ms to −120 mV), then holding the membrane voltage to V112 (4 seconds at voltage to obtain half the channel at Rest and half Inactivated) with a subsequent second test pulse (P2; 20 ms to −10 mV) to check for channels in the Inactivated State, followed by another brief recovery (20 ms to −120 mV) and a final third test pulse (P3; 20 ms to −10 mV) to check for recovered channels.\nTo check for frequency-dependent inhibition, a 10 Hz protocol and a 20 Hz protocol were applied; namely,\nFrom a resting membrane potential of −120 mV, 40-pulses (10 ms to −10 mV) was applied at 10 Hz (at 100 ms between pulses) and then at 20 Hz (at 50 ms between pulses).\nEach parameter was recorded (P1, P2, P3, P40 from 10 Hz and P40 from 20 Hz) during a control period (lasting 5 minutes) when establishing the baseline and during compound period (lasting ˜12 minutes) when test compound (or vehicle) was applied. For each parameter, the value at the end of the compound period was normalized to the vehicle baseline; as follows\nTo adjust for any variance in the Na^+ current signal during the compound period (owing to cumulative inactivation independent of compound or shifts in biophysics over time), a dedicated segment of the recording wells in each 384 plate were dedicated to having only vehicle exposure. These vehicle-only recordings were used to correct for any apparent “run-up” or “run-down” in the experiment.\nThe adjusted inhibition was calculated as follows: […]\nPercent inhibition was determined and IC50 values were calculated using a 4 parameter logistic model within XLFit Software (IDBS, Boston MA):\n[formula] where A and B are the maximal and minimum inhibition respectively, C is the IC50 concentration and D is the (Hill) slope.\nThe potency data was either taken from inactivated or resting state."}
{"smiles": "NC(=O)c1cc(NC(=O)c2c(C(F)(F)F)c(C3CC3)nn2CC2CC(C(F)F)C2)ccn1", "note": "(single isomer, unassigned) [SC-221b, 4-(3-cyclopropyl-1-((3-(difluoromethyl)cyclobutyl)methyl)-4-(trifluoromethyl)-1H-pyrazole-5-carboxamido)picolinamide]", "pIC50": "≥ 7.00"}
{"smiles": "Cc1c(C(F)(F)F)nn(CC2CCC(F)(F)C2)c1C(=O)Nc1ccnc(S(N)(=O)=O)c1", "note": "(single isomer, unassigned) [SC-254a]", "pIC50": "≥ 7.00"}
{"smiles": "Cc1c(C(F)(F)F)nn(CC2CCC(F)(F)C2)c1C(=O)Nc1ccnc(S(N)(=O)=O)c1", "note": "(single isomer, unassigned) [SC-254b]", "pIC50": "≥ 7.00"}
{"smiles": "NC(=O)c1cc(NC(=O)c2c(C(F)(F)F)c(C3CC3)nn2CC2CCCCO2)ccn1", "note": "(single isomer, unassigned) [SC-258a]", "pIC50": "≥ 7.00"}
{"smiles": "NC(=O)c1cc(NC(=O)c2c(C(F)(F)F)c(C3CC3)nn2CC2CCCCO2)ccn1", "note": "(single isomer, unassigned) [SC-258b]", "pIC50": "≥ 7.00"}
{"smiles": "CS(=O)(=O)c1cc(NC(=O)c2c(C(F)(F)F)c(C3CC3)nn2CC2CCCCO2)ccn1", "note": "(single isomer, unassigned) [SC-259a]", "pIC50": "≥ 7.00"}
{"smiles": "CS(=O)(=O)c1cc(NC(=O)c2c(C(F)(F)F)c(C3CC3)nn2CC2CCCCO2)ccn1", "note": "(single isomer, unassigned) [SC-259b]", "pIC50": "≥ 7.00"}
{"smiles": "COc1c(C(C)(F)F)nn(CC2CCC(F)(F)C2)c1C(=O)Nc1ccnc(C(N)=O)c1", "note": "(single isomer, unassigned) [SC-271a]", "pIC50": "6.00 to 7.00"}
{"smiles": "COc1c(C(C)(F)F)nn(CC2CCC(F)(F)C2)c1C(=O)Nc1ccnc(C(N)=O)c1", "note": "(single isomer, unassigned) [SC-271b]", "pIC50": "6.00 to 7.00"}
{"smiles": "CS(=O)(=O)c1cc(NC(=O)c2c(C(F)(F)F)c(C3CC3)nn2CC2CCC(F)(F)C2)ccn1", "note": "(single isomer, unassigned) [SC-277a]", "pIC50": "≥ 7.00"}
{"smiles": "CS(=O)(=O)c1cc(NC(=O)c2c(C(F)(F)F)c(C3CC3)nn2CC2CCC(F)(F)C2)ccn1", "note": "(single isomer, unassigned) [SC-277b]", "pIC50": "≥ 7.00"}
{"smiles": "Cc1c(C(F)(F)C(F)(F)F)nn(CC2CCC2(F)F)c1C(=O)Nc1ccnc(C(N)=O)c1", "note": "(single isomer, unassigned) [SC-278a]", "pIC50": "≥ 7.00"}
{"smiles": "Cc1c(C(F)(F)C(F)(F)F)nn(CC2CCC2(F)F)c1C(=O)Nc1ccnc(C(N)=O)c1", "note": "(single isomer, unassigned) [SC-278b]", "pIC50": "≥ 7.00"}
{"smiles": "NC(=O)c1cc(NC(=O)c2c(C(F)(F)F)c(C3CC3)nn2CC2CC2(F)F)ccn1", "note": "(single isomer, unassigned) [SC-279a]", "pIC50": "6.00 to 7.00"}
{"smiles": "NC(=O)c1cc(NC(=O)c2c(C(F)(F)F)c(C3CC3)nn2CC2CC2(F)F)ccn1", "note": "(single isomer, unassigned) [SC-279b]", "pIC50": "6.00 to 7.00"}
{"smiles": "COC1CC(Cn2nc(C3CC3)c(C(F)(F)F)c2C(=O)Nc2ccnc(C(N)=O)c2)C1", "note": "(single isomer, unassigned) [SC-281a]", "pIC50": "6.00 to 7.00"}
{"smiles": "COC1CC(Cn2nc(C3CC3)c(C(F)(F)F)c2C(=O)Nc2ccnc(C(N)=O)c2)C1", "note": "(single isomer, unassigned) [SC-281b]", "pIC50": "6.00 to 7.00"}
{"smiles": "NC(=O)c1cc(NC(=O)c2c(C(F)(F)F)c(C3CC3)nn2C[C@@H]2CC[C@H](C(F)(F)F)O2)ccn1", "note": "(single isomer, unassigned) [SC-284a]", "pIC50": "≥ 7.00"}
{"smiles": "NC(=O)c1cc(NC(=O)c2c(C(F)(F)F)c(C3CC3)nn2C[C@@H]2CC[C@H](C(F)(F)F)O2)ccn1", "note": "(single isomer, unassigned) [SC-284b]", "pIC50": "≥ 7.00"}
{"smiles": "C[C@@H]1CC[C@H](Cn2nc(C3CC3)c(C(F)(F)F)c2C(=O)Nc2ccnc(C(N)=O)c2)O1", "note": "(single isomer, unassigned) [SC-286a]", "pIC50": "6.00 to 7.00"}
{"smiles": "C[C@@H]1CC[C@H](Cn2nc(C3CC3)c(C(F)(F)F)c2C(=O)Nc2ccnc(C(N)=O)c2)O1", "note": "(single isomer, unassigned) [SC-286b]", "pIC50": "6.00 to 7.00"}
{"smiles": "NC(=O)c1cc(NC(=O)c2c(C(F)(F)F)c(C3CC3)nn2CC2CC(F)(F)C2(F)F)ccn1", "note": "(single isomer, unassigned) [SC-291a]", "pIC50": "≥ 7.00"}
{"smiles": "NC(=O)c1cc(NC(=O)c2c(C(F)(F)F)c(C3CC3)nn2CC2CC(F)(F)C2(F)F)ccn1", "note": "(single isomer, unassigned) [SC-291b]", "pIC50": "≥ 7.00"}
{"smiles": "Cc1c(C(C)(F)F)nn(CC2CCC(F)(F)C2)c1C(=O)Nc1cccc(S(N)(=O)=O)c1", "note": "(single isomer, unassigned) [SC-296a]", "pIC50": "≥ 7.00"}
{"smiles": "Cc1c(C(C)(F)F)nn(C[C@H]2CCC(F)(F)C2)c1C(=O)Nc1cccc(S(N)(=O)=O)c1", "note": "(single isomer, unassigned) [SC-296b]", "pIC50": "≥ 7.00"}
{"smiles": "Cc1c(C(C)(F)F)nn(CC2(C)CCCCO2)c1C(=O)Nc1ccnc(S(N)(=O)=O)c1", "note": "(single isomer, unassigned) [SC-312a]", "pIC50": "6.00 to 7.00"}
{"smiles": "Cc1c(C(C)(F)F)nn(C[C@@]2(C)CCCCO2)c1C(=O)Nc1ccnc(S(N)(=O)=O)c1", "note": "(single isomer, unassigned) [SC-312b]", "pIC50": "6.00 to 7.00"}
{"smiles": "Cc1c(C(C)(F)F)nn(C[C@@H]2CC[C@H]2C(F)(F)F)c1C(=O)Nc1ccnc(C(N)=O)c1", "note": "(single isomer, unassigned) [SC-315a]", "pIC50": "≥ 7.00"}
{"smiles": "Cc1c(C(C)(F)F)nn(C[C@@H]2CC[C@H]2C(F)(F)F)c1C(=O)Nc1ccnc(C(N)=O)c1", "note": "(single isomer, unassigned) [SC-315b]", "pIC50": "≥ 7.00"}
{"smiles": "Cc1c(C(C)(F)F)nn(C[C@]2(C)CCCO2)c1C(=O)Nc1ccnc(S(N)(=O)=O)c1", "note": "(single isomer, unassigned) [SC-319a]", "pIC50": "6.00 to 7.00"}
{"smiles": "Cc1c(C(C)(F)F)nn(CC2(C)CCCO2)c1C(=O)Nc1ccnc(S(N)(=O)=O)c1", "note": "(single isomer, unassigned) [SC-319b]", "pIC50": "5.00 to 6.00"}
{"smiles": "Cc1c(C(C)(F)F)nn(CC2C[C@H]2C(F)F)c1C(=O)Nc1ccnc(S(C)(=O)=O)c1", "note": "(stereo in doubt) [SC-207, 3-(1,1-difluoroethyl)-1-((2-(difluoromethyl)cyclopropyl)methyl)-4-methyl-N-(2-(methylsulfonyl)pyridin-4-yl)-1H-pyrazole-5-carboxamide]", "pIC50": "6.00 to 7.00"}
{"smiles": "CS(=O)(=O)c1cccc(NC(=O)c2cc(C(F)(F)F)nn2CC2CCCCC2)c1", "note": "[SC-01, 1-(cyclohexylmethyl)-N-(3-(methylsulfonyl)phenyl)-3-(trifluoromethyl)-1H-pyrazole-5-carboxamide]", "pIC50": "6.00 to 7.00"}
{"smiles": "CS(=O)(=O)c1cccc(NC(=O)c2cc(C(F)(F)F)nn2CC2CCC(F)(F)CC2)c1", "note": "[SC-02, 2-[(4,4-difluorocyclohexyl)methyl]-N-(3-methylsulfonylphenyl)-5-(trifluoromethyl)pyrazole-3-carboxamide]", "pIC50": "6.00 to 7.00"}
{"smiles": "CS(=O)(=O)c1cccc(NC(=O)c2cc(C(F)(F)F)nn2CC2CCCC2)c1", "note": "[SC-03, 2-(cyclopentylmethyl)-N-(3-methylsulfonylphenyl)-5-(trifluoromethyl)pyrazole-3-carboxamide]", "pIC50": "6.00 to 7.00"}
{"smiles": "CS(=O)(=O)c1cccc(NC(=O)c2cc(C(F)(F)F)nn2CC2CCOCC2)c1", "note": "[SC-04, N-(3-methylsulfonylphenyl)-2-(oxan-4-ylmethyl)-5-(trifluoromethyl)pyrazole-3-carboxamide]", "pIC50": "5.00 to 6.00"}
{"smiles": "CS(=O)(=O)c1cccc(NC(=O)c2c(C(F)(F)F)cnn2CC2CCC(F)(F)CC2)c1", "note": "[SC-05, 2-[(4,4-difluorocyclohexyl)methyl]-N-(3-methylsulfonylphenyl)-4-(trifluoromethyl)pyrazole-3-carboxamide]", "pIC50": "6.00 to 7.00"}
